In a melting point compilation (Tetko et al.; mined from patent text by program, amines drawn as free bases though some values may be those of a salt):

`COC1=C(OC)C(=O)C(c2cc(C(C)(C)C)c(O)c(C(C)(C)C)c2)=C(C)C1=O` showed a melting point of 147 to 148 °C. With `CCOC(=O)COc1ccc(CC2SC(=O)NC2=O)cc1` (stereo not given) the melting point was 105 to 106 °C. `CCOC(=O)C1=Cc2cc(Cl)cc(C)c2NC1C(F)(F)F` (stereo not given) showed a melting point of 154 to 155 °C. With `Fc1ccc2[nH]cc(C3CCC4(CC3)OCCO4)c2c1` the melting point was 183 to 185 °C. `O=C1Nc2cc(F)ccc2C1c1ncnc2nn(C3CCCC3)cc12` (stereo not given) gave a melting point of 258 to 263 °C. `CSc1nc(-c2ccccc2)n(-c2ccc(F)cc2)c(=O)c1C#N` showed a melting point of 204 to 205 °C. In the case of `Nc1nc2c(s1)CCN(CC=Cc1ccoc1)CC2`, the melting point is reported as 130 to 136 °C. In the case of `C[C@]1(COc2ccc(N3CCN(C(=O)OCc4ccc(Cl)cc4)CC3)cc2)Cn2cc([N+](=O)[O-])nc2O1`, the melting point is reported as 184 to 188 °C. In the case of `Oc1cnc2cc(C(F)(F)F)ccc2n1`, the melting point is reported as 260 °C. `Cc1nc(-c2ccccc2)c(C)c(=O)o1` gave a melting point of 68 °C. With `C1=C(c2cccnc2)CCC(N2CCN(c3ccccn3)CC2)C1` (stereo not given) the melting point was 146 to 148 °C. `CCn1c(=O)c2cnc(N)nc2n(CC)c1=O` showed a melting point of 230 to 232 °C. `COC(=O)COc1ccc2cc(CNC(=O)OC(C)(C)C)ccc2c1Br` showed a melting point of 96 to 100 °C. `Cc1ccccc1CNC(=O)N1Cc2ccccc2-n2nc(C(C)(C)C)cc21` gave a melting point of 180 to 181 °C. Molecule `C=C1N(c2cccc3ccccc23)C(=O)OC12CCN(CCC=C(c1ccc(F)cc1)c1ccc(F)cc1)CC2` has a melting point of 99 to 101 °C. `Cc1nc(N)sc1S(=O)(=O)N1CCC(O)C1` (racemic) showed a melting point of 165 °C. `O=C(NCCCCCCCNC(=O)c1ccc(Oc2ccccc2)cc1)c1ccc(Oc2ccccc2)cc1` showed a melting point of 164 to 165 °C. With `O=C(O)C(O)c1cccs1` (stereo not given) the melting point was 75 °C. `CCOC(=O)CCCn1c(Nc2cnc(OC)cc2C)nc2c(Cl)ccc(C(CC)CC)c21` gave a melting point of 140 to 142 °C. `O=C(c1cc([N+](=O)[O-])cc(C(F)(F)F)c1)N1CCC1` showed a melting point of 91 °C. In the case of `O=[N+]([O-])c1cnc(NCC(O)CO)cn1` (stereo not given), the melting point is reported as 185 to 187 °C. `NCc1cccc2c1CN(c1nc3c(cc1F)c(=O)c(C(=O)O)cn3C1CC1)C2` gave a melting point of over 300 °C. Work on `CC(=O)OC1CSC(Oc2cccnc2-c2ccoc2)C(OC(C)=O)C1OC(C)=O` (stereo not given) yielded a melting point of 185 °C. Work on `O=[N+]([O-])c1cc(Cl)c(N=C2NCCCN2)c(Cl)c1` yielded a melting point of 265 °C. Molecule `O=C1C=CC(OC2CCCC2)N1S(=O)(=O)c1ccccc1` (stereo not given) has a melting point of 123 to 124 °C. In the case of `CCCCCCCCCCCCSC(C)(C)C=NNC(=O)CCc1cc(C(C)(C)C)c(O)c(C(C)(C)C)c1`, the melting point is reported as 53 to 57 °C. `C(#Cc1cccnc1)C1=CCN(Cc2c[nH]c3ncccc23)CC1` showed a melting point of 170 to 172 °C. With `COC(=O)Nc1cc(OC)c(-c2ccc(C[C@H](NC(=O)c3c(Cl)cccc3Cl)C(=O)O)cc2)c(OC)c1` the melting point was 235 to 236 °C. For `CNc1ccc([N+](=O)[O-])cc1N`, the melting point was 171 to 173 °C. `COc1c(O)c(C=O)cc2ccoc12` gave a melting point of 60 to 62 °C. `Cc1cc(C)cc(Cc2c(C(C)C)c(=O)[nH]c(=O)n2C/C=C/c2ccccc2)c1` showed a melting point of 180 to 181 °C. Work on `CN(C)Cc1ccc(C2(O)CCC3(CC2)OCCO3)cc1` yielded a melting point of 84 to 86 °C. In the case of `CC(=O)NC[C@H]1CN(c2ccc(N3CCC(O)(CC(N)=O)CC3)c(F)c2)C(=O)O1`, the melting point is reported as 208 to 210 °C. For `CCOC(=O)c1ncc2[nH]c3ccc(Oc4ncccn4)cc3c2c1COC`, the melting point was 128 to 129 °C. `NC(=O)c1nccn1C1Cc2c(cccc2-c2ccccc2)C1=O` (stereo not given) gave a melting point of 196 °C. `CCc1nc2ccccc2c(C(=O)OCC(=O)OC(C)(C)C)c1Oc1ccc(-c2ccccc2C#N)cc1` gave a melting point of 83 to 85 °C. Work on `CC(C)C1(C)NC(c2nccc(O)c2C(=O)O)=NC1=O` (stereo not given) yielded a melting point of 210 to 211 °C. Work on `O=C(N[C@H]1CCN(CCc2ccc(F)cc2)C1)n1c2ccccc2c2ccccc21` yielded a melting point of 107 to 108 °C. With `O=C1CCNc2c1cc(Cl)cc2[N+](=O)[O-]` the melting point was 132 to 135 °C. With `CCC(CC)Nc1cc(COC(C)=O)c([N+](=O)[O-])cc1[N+](=O)[O-]` the melting point was 46 to 52 °C. Work on `Cn1ccc2c3c(c(C(=O)O)cc21)C(=O)NC3=O` yielded a melting point of 313 to 318 °C. `Cc1c(SCC(=O)N2CCOC(CN(C)C)C2)ccnc1CSc1nc2ccccc2[nH]1` (stereo not given) gave a melting point of 160 °C. `O=c1[nH]c2ncccc2c(=O)n1CCCCCCn1c(=O)[nH]c2ncccc2c1=O` gave a melting point of 324 to 328 °C. Molecule `CCn1cc(C(=O)NCCc2ccncc2)c(=O)c2cnc(N3CCCC3)nc21` has a melting point of 175 to 177 °C. Molecule `COC1=CC(=O)C(OC)=C(CCCCCC2=C(OC)C(=O)C(C)=C(OC)C2=O)C1=O` has a melting point of 48 to 49 °C. `O=C1c2ccccc2-n2cnc(-c3nc(CN4Cc5ccccc5C4)no3)c2[C@@H]2CCN12` showed a melting point of 210 to 213 °C. With `C=CCNC(=O)C=c1sc2n(c1=O)Cc1ccccc1N=2` the melting point was 275 to 276 °C. In the case of `c1csc(-c2n[nH]c3c2Cc2cc(CN4CCOCC4)ccc2-3)c1`, the melting point is reported as 178 to 179 °C. In the case of `Nc1nc(C(=O)C(=O)O)cs1`, the melting point is reported as over 200 °C. With `COc1ccc(C(=O)N2CCC(N3CCc4ccccc43)c3ccccc32)cc1OC` (stereo not given) the melting point was 121 to 123 °C.
